In the pKa sets of Baltruschat and Czodrowski (2020) one finds pKa data, which are given here for 68 compounds.

SMILES strings stand for the structures.

`COc1cc(S(C)=O)ccc1-c1cn2ccnc(OC)c2n1` (centres undefined): where the note is “basic group”, the pKa (commonly the pH at which an ionisable group is half protonated) stood at 2.46. Regarding `Cc1nnc([N-]S(=O)(=O)c2ccc(O)cc2)s1`, the pKa (acidic group) amounted to 8.81. Same read-out and setting: then `O=S(=O)(Cc1ccccc1)c1ncn[nH]1`, with 6.23; and `CC(C)c1ccc(C(=O)O)cc1`, with 4.31; and `CCN(CC)S(=O)(=O)c1ccsc1C(=O)O`, with 2.77. As to `COc1cc([N+](=O)[O-])cc(C(=O)N[C@@H]2C[C@H]3CC[C@@H](C2)N3Cc2ccccc2)c1OC`, for the setting “basic group”, the pKa came to 8.7. In turn, `Cn1cc(Cl)cn1` displayed a pKa (basic group) of 0.16. Regarding `Cc1ccc(NCCNc2ccc(C)cc2)cc1`, under “basic group”, the pKa worked out at 4. Under “basic group”, `Cc1c(C(C)C)c(=O)n(-c2ccccc2)n1C` showed a pKa of 2.4.

With `C#CC(CC)(CC)N(CC)C(C)C`, the pKa (basic group) stood at 8.2. Still for that read-out and setting: then `c1ccc(C2CCCN2)cc1` (centres undefined), with 9.6. `[NH3+]CCc1ccccc1O` showed a pKa (acidic group) of 9.19. In turn, `C=C[C@]1(O)C[NH+]2CC[C@H]1C[C@@H]2[C@@H](O)c1ccnc2ccc(OC)cc12` gave a pKa (basic group) of 4.12. Turning to `O=c1cc(S(=O)(=O)[O-])[nH]c(=O)[nH]1`, where the note is “acidic group”, the pKa worked out at 7.26. In the case of `CC=C=CC(C)(C)C(=O)O`, for the setting “acidic group”, the pKa came to 4.58. Still for that read-out and setting: to `[S-]c1ccncc1` belongs 8.83. Consider `O=[N+]([O-])c1ccc([O-])c(CN2CCCCC2)c1`, for which the pKa (basic group) was 10.5.

In turn, `Cc1cc(C)c2cccc(C)c2n1` gave a pKa (basic group) of 4.48. In turn, `O=C(O)c1csc(Cl)n1` came in with a pKa (acidic group) of 3.3.

The compound `NOCc1ccc(Cl)cc1` gave a pKa (basic group) of 4.22. Same read-out and setting: to `COC(=O)[C@H](Cc1c[nH]cn1)NC(C)=O` belongs 6.3. Regarding `CN1C2=CCCC1CCC2` (centres undefined), for the setting “basic group”, the pKa amounted to 8.8. As for `Nc1cc(-c2ccccc2)nc2ccccc12`, the pKa (basic group) amounted to 8.2. Turning to `Cc1ccc(C(O)C(C(=O)O)c2ccc(-c3ccccc3)cc2)cc1` (centres undefined), for the setting “acidic group”, the pKa was 4.24.

In turn, `CCCn1nnnc1N` gave a pKa (basic group) of 1.8. Under “acidic group”, `CC[C@@H](C(=O)O)[C@@]1(O)C[C@H]2CC[C@@H]1C2` displayed a pKa of 4.26.

Where the note is “basic group”, `NC(CC(=O)[O-])c1ccccn1` (centres undefined) returned a pKa of 9.22. For the compound `C[C@@H]1[C@@H](N)[C@H]1[NH3+]`, for the setting “basic group”, the pKa was 4.35. `CCCc1c(C)[n-]n(C2CCN(C)CC2)c1=O` came in with a pKa (basic group) of 9.2. Regarding `CC1CC(C)C(=O)CC1=O` (centres undefined), the pKa (acidic group) came out at 5.62. The same measure, in the same setting: to `Oc1ccc(Br)cc1Br` belongs 7.77; to `OC[C@@H]1O[C@@H]2NC(=S)O[C@@H]2[C@H]1O`, 9.48; to `O=C1/C(=N\O)CC/C1=N\O`, 7.95. For the compound `CC(=O)NC(Cc1c[nH]cn1)C(=O)[O-]` (centres undefined), the pKa (basic group) was found to be 7.11. Regarding `COc1cc(OS(C)(=O)=O)ccc1-c1cn2cccnc2n1`, the pKa (basic group) was found to be 3.95.

Consider `Cc1cccc(O)c1`, for which the pKa (acidic group) was 10.

Where the note is “basic group”, `C1CNCCNCC[NH2+]C1` yielded a pKa of 6.75. Under “basic group”, `Cc1cnncc1C` gave a pKa of 4.13. Turning to `CC(=O)Nc1ccc(O)c([N+](=O)[O-])c1`, where the note is “acidic group”, the pKa is 6.78. In the case of `Cc1ccccc1/C(=N\CCC[NH+](C)C)c1ccccc1-c1ccccc1`, the pKa (basic group) came out at 4.67. Under “acidic group”, `Nc1ccc(S(=O)(=O)Nc2ncccc2O)cc1` showed a pKa of 7.6. Compound `O=c1[nH]cc(SSc2c[nH]c(=O)[nH]c2=O)c(=O)[nH]1` came in with a pKa (acidic group) of 8. `Nc1ccccc1Br` returned a pKa (basic group) of 2.4. For the compound `CCCCSC(=N)c1ccccc1`, the pKa (acidic group) was found to be 8.21. The compound `Nc1cccc2cccc(N)c12` registered a pKa (basic group) of 4.6. For the setting “acidic group”, `O=C(O)CCc1ccccc1` registered a pKa of 4.59. Compound `NCCC(=O)NCCc1c[nH]cn1` returned a pKa (basic group) of 9.21. Still for that read-out and setting: to `CN(C)c1ccc(C=O)cc1` belongs 1.6. For the compound `O=C(O)[C@@H]1C[C@@H]1Cl`, under “acidic group”, the pKa was found to be 4.12. For the setting “basic group”, `OCCN(CCO)c1ccccc1` displayed a pKa of 4.11. In turn, `Cn1cncc1C[C@H](NC(=O)CC[NH3+])C(=O)[O-]` yielded a pKa (basic group) of 7.08.

On to `Cc1ccc2c(c1)N1CCN2CC1`, for which the pKa (basic group) amounted to 5.83. With `Cn1cnc2cnc([O-])nc21`, under “basic group”, the pKa stood at 9.19. Same read-out and setting: then `CN[C@H]1C[C@]1(C)NC`, with 9.05.

With `O=C(O)c1ccccc1CO`, the pKa (acidic group) was determined as 3.84.

The compound `[O-]c1cccc(Cl)n1` showed a pKa (basic group) of 7.76. Turning to `CC(=O)C(CN1CCOCC1)c1ccccc1` (centres undefined), the pKa (basic group) came out at 6.23. For `Cc1cc(C)nc(NS(=O)(=O)c2ccc(N)cc2)n1`, the pKa worked out at 7.44 (acidic group) and 2.35 (basic group).

For `O=C(O)Cc1cccs1`, under “acidic group”, the pKa was determined as 3.85.

For the compound `NS(=O)(=O)c1ccc(/N=C/c2ccccc2[O-])cc1`, for the setting “acidic group”, the pKa came out at 11.7.

Compound `COc1ccc(C2NCCS2)cc1` (centres undefined) returned a pKa (basic group) of 5.45. In the case of `CN(C)c1cccc([N+](=O)[O-])c1`, the pKa (basic group) was found to be 2.58. `Cc1cccc(OC(O)(CBr)c2ccccc2)c1` (centres undefined) yielded a pKa (acidic group) of 11.2. With `COc1ccc(N)cn1`, where the note is “basic group”, the pKa worked out at 4.24.

Take `Cn1cnc2nc([O-])nc(O)c21`: the pKa (acidic group) worked out at 10.6.

The compound `O=C1CC2OCC=C3C4CC5N(CCC56c5ccccc5N1C6C24)[C@H]3S(=O)(=O)[O-]` (some centres undefined) gave a pKa (basic group) of 3.2. In the case of `[S-]c1nccc2ccccc12`, the pKa (basic group) worked out at 10.8. `O=C(S)c1ccccc1` returned a pKa (acidic group) of 2.44.
